According to PMC9863562, “Design, Synthesis, and Biological Evaluation of 2-Mercaptobenzoxazole Derivatives as Potential Multi-Kinase Inhibitors” (Pharmaceuticals, 2023):

Columns and labels:
[1] = test system: MCF-7 cells (mammary gland cancer); experiment: MTT cytotoxicity assay, MCF-7; assay type: cell-based; conditions: Homo sapiens, MCF7, 24 h treatment, read-out: In Vitro Cytotoxicity IC50 MCF-7
Protocol: After incubation, the cells were treated with various concentrations of the synthesized compounds and incubated for an additional 24 h. Following the drug treatment, 20 µL of 5 mg/mL MTT solution was added and incubated for 4 h. To dissolve the purple formazan that had formed, 100 µL dimethyl sulfoxide (DMSO) was added to each well. […] The percentage of relative cell viability was counted using the following formula (A570 of handled specimens/A570 of the unhandled specimen), multiplied by 100.

Human VEGFR-2 = biological target: T1, Human VEGFR-2 (Homo sapiens, UniProt P35968); experiment: In vitro VEGFR-2 enzyme assay (ELISA kit); assay type: biochemical; conditions: read-out: IC50 VEGFR2
T1 construct: purchased
Protocol: (§1) Compound 6b was biologically evaluated for its inhibitory effect against CDK2, EGFR, HER2, and VEGFR-2. Human CDK2, EGFR, HER2, and VEGFR-2 ELISA kits (Enzyme-Linked-Immunosorbent Serologic Assay) were used during this evaluation. At first, specified antibody proteins were added separately to a 96-well plate, then 0.1 mL of the standard solution or the evaluated molecule was added; these were then incubated for 2.5 h at RT. After rinsing, 100 μL of the ready-made biotin antibody protein was added, then incubated for one extra hour at room temperature and, finally, washed. Next, 100 μL of streptavidin solution was added, incubated at room temperature for 45 min, and then washed. Next, 100 μL of the TMB substrate reagent was added and incubated for 0.5 h at RT, followed by adding 50 μL of the stop solution. The absorbance of the ELISA plate was promptly measured at 450 nm using the ELISA plate reader. The standard curve that was generated had absorbances on the Y-axis and concentrations on the X-axis.

HepG2 cells = experiment: Cell-cycle flow cytometry analysis (PI staining); assay type: cell-based, human; conditions: HepG2, 6b at 6.83 μM, 24 h
Protocol: Programmed cell death is a fundamental cellular program that is inherent in every cell of the human body. One of the most extensively studied forms of programmed cell death is apoptosis, which plays an important role during the various physiological processes and is involved in a variety of pathological conditions. The HepG2 cells were exposed to compound 6b for 24 h and the cell cycle was monitored via flow cytometry; the results are reported in Table 5.
To detect the effect of the synthesized compound, 6b, on cell cycle distribution, flow cytometry analysis was carried out, utilizing propidium iodide (PI) staining. The kit used for the cell cycle flow cytometry analysis was the K101-100 Annexin V-FITC Apoptosis Detection Kit (BioVision, Mountain View, CA, USA). […] Then, the treated cells were fixed in 70% ethanol for 12 h at 4 °C. Following that, the cells were rinsed with cold PBS, incubated with 100 μL RNase A for 0.5 h at 37 °C, and stained with propidium iodide (400 μL) in the dark at RT for an extra 0.5 h. The stained cells were determined, utilizing Epics XLMCL™ flow cytometer equipment (Beckman Coulter, Apeldoorn, Netherlands), then the results were collected and analyzed with the Flowing software (version 2.5.1, Turku Center for Biotechnology, Turku, Finland).

Human HER2 = biological target: T2, Human HER2 (Homo sapiens, UniProt P04626); experiment: In vitro HER2 enzyme assay (ELISA kit); assay type: biochemical
T2 construct: purchased
Protocol: as §1, with “Human” for “Compound 6b was biologically evaluated for its inhibitory effect against CDK2, EGFR, HER2, and VEGFR-2. Human”, “reader.” for “reader. The standard curve that was generated had absorbances on the Y-axis and concentrations on the X-axis.”

Bax = experiment: Apoptosis-related proteins in HepG2 cells (ELISA), Bax; assay type: cell-based, human
Description: (§2) Compound 6b was selected to investigate the apoptotic markers against the liver cancer cell line (HepG2). […] Typically, Bax, Bcl-2, and caspases contribute to the regulation of apoptotic signaling. Acting as an apoptotic activator (Bax) or inhibitor (Bcl-2), the Bcl-2 family of proteins plays a significant role in apoptosis. The caspase family comprises cysteine proteases that are classified as either executioner—caspase-3, or as initiators—caspase-9 and caspase-8 [40]. […] Nevertheless, considerable downregulation of the anti-apoptotic gene, Bcl-2 (0.26 folds), was described, leading to an increased expression ratio of Bax/Bcl-2 (1→20.53). The Bax/Bcl-2 gene expression ratio can serve as an early predictor for cancer in patients and is a sensitive monitor of cancer progression. Collating all the provided evidence, the upregulation of caspase-3, caspase-9, and Bax is clear, while the downregulation of Bcl-2 genes makes it evident that compound 6b induces apoptosis within the liver cancer cell line (HepG2).
(§3) The HepG2 cells were incubated in 96-well plates in triplicates and left for 24 h. After 24 h of incubation, the cells were treated with compound 6b at different concentrations, while control cells were only treated with 0.1% DMSO (v/v). The treated cells, along with control cells, were then incubated for another 24 h; then, caspases-3 and 9, BAX, and Bcl-2 levels were determined using ELISA assay kits; KHO1091 (Invitrogen^TM, Grand Island, NY, USA), EIA-4860 (DRU International, Inc., Mountainside, NJ, USA), EIA-4487 (DRU International INC., Mountainside, NJ, USA) and 99–0042 (Invitrogen^TM, Grand Island, NY, USA), respectively, according to their manufacturers’ procedures.

Bcl-2 = experiment: Apoptosis-related proteins in HepG2 cells (ELISA), Bcl-2; assay type: cell-based, human
Description: as §2, with “Collating all the provided evidence, the upregulation of caspase-3, caspase-9, and Bax is clear, while the downregulation of Bcl-2 genes makes it evident that compound 6b induces apoptosis within the liver cancer cell line (HepG2).” left out
as §3, with “After 24 h of incubation, the cells were treated with compound 6b at different concentrations, while control cells were only treated with 0.1% DMSO (v/v).” left out

T1 sequence (P35968 20-1356): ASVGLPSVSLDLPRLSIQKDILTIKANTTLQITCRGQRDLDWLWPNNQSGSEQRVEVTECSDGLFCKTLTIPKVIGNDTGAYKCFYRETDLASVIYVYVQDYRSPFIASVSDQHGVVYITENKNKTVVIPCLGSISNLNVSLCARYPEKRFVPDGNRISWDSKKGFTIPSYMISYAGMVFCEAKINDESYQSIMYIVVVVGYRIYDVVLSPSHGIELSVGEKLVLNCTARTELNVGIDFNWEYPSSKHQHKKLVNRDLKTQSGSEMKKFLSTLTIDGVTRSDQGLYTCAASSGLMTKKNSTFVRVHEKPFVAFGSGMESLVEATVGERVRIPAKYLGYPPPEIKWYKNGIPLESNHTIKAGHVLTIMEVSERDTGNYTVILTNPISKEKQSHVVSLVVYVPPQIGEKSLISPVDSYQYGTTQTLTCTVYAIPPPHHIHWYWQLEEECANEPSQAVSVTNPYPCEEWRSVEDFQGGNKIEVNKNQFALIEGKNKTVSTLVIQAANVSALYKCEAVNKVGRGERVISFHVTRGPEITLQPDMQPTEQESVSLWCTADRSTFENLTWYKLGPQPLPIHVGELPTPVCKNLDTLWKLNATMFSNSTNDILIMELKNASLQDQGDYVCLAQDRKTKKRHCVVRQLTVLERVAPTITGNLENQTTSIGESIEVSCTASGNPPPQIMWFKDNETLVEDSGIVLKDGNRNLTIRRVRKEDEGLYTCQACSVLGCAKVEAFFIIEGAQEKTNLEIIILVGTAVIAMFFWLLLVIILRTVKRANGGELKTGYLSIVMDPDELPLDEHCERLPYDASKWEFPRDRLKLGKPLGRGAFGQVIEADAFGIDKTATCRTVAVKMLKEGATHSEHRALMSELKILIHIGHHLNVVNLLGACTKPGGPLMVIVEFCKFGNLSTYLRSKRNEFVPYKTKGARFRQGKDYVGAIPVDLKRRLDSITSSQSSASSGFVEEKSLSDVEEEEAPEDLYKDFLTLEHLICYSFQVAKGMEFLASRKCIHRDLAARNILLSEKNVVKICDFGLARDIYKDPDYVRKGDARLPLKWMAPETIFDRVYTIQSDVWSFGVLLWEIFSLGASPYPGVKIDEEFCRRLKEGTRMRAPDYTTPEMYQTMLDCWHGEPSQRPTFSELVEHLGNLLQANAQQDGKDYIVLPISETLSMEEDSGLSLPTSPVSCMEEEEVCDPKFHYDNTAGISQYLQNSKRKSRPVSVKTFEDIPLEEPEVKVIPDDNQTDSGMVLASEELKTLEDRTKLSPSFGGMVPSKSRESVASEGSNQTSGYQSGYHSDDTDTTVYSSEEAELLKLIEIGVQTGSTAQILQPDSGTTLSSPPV
T2 sequence (P04626 23-1255): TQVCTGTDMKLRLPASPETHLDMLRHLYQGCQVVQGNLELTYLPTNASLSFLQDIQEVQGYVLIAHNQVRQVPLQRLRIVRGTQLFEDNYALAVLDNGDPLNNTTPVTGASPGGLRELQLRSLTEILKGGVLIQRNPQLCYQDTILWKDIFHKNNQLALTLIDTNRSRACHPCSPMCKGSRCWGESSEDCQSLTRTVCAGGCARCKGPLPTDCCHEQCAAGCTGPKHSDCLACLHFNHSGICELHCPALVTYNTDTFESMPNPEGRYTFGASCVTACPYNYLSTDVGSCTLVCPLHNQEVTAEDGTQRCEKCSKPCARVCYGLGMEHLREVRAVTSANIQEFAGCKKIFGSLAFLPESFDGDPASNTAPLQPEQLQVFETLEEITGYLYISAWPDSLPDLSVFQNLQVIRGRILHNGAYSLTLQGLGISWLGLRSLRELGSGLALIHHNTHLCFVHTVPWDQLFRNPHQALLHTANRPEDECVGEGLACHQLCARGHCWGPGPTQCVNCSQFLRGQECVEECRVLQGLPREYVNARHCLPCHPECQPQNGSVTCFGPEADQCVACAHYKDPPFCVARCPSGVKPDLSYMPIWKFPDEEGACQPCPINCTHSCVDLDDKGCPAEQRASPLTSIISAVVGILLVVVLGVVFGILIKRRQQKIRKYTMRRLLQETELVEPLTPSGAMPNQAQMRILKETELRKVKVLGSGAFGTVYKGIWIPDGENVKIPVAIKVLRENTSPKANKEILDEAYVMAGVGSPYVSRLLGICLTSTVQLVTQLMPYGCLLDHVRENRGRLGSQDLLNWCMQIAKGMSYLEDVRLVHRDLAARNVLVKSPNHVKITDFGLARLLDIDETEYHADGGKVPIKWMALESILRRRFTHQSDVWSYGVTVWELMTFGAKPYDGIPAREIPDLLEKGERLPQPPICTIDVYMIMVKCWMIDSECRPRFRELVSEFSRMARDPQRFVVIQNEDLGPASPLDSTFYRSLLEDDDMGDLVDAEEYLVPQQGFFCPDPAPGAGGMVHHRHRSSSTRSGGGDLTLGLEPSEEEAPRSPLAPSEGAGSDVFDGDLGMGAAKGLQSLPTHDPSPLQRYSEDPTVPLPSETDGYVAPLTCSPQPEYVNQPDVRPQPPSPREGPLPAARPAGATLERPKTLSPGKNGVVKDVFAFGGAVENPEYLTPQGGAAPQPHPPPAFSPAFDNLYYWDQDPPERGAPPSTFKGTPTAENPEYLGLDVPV

IC50 (Human VEGFR-2): 565 ± 25 nM
IC50 (Human HER2): 224 ± 13 nM
SMILES: O=C(CSc1nc2ccccc2o1)NN=Cc1ccc[nH]1 (mixture of isomers) [Compound 6b, (E/Z)-N′-((1H-pyrrol-2-yl)methylene)-2-(benzo[d]oxazol-2-ylthio)acetohydrazide]
IC50 [1]: 3640 ± 200 nM
%G0–G1 (HepG2 cells): 40.37%
%G2/M (HepG2 cells): 31.26%
%Pre–G1 (HepG2 cells): 16.84%
%S (HepG2 cells): 28.37%
Bax Expression (Bax; 24 h treatment, ELISA): 448.4 ± 15.4 pg/mL
expression ratio of Bax/Bcl-2 (Bax; control = 1): 20.53
Bax Fold (Bax; versus control HepG2 = 1): 5.34 fold
Bcl-2 Expression (Bcl-2; 24 h treatment, ELISA): 2.822 ± 0.21 pg/mL
Bcl-2 Fold (Bcl-2; versus control HepG2 = 1): 0.26 fold
